Data from US12617779B2, “Self degradation-type CDK9 inhibitor prodrug and liposome encapsulating same” (Sumitomo Pharma Co., Ltd., priority 2021, dated 2026).

How the values were obtained:
[1] = Evaluation of conversion rate to active form in buffer solution (Experimental Example 1); type: physicochemical
How it was run: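 HPLC read-out: residual parent and Alvocidib production rate after 0, 0.5, 1, 2 and 3 hours. Compounds sat at 25 umol/L, 37° C, in buffers from pH 5.0 to 7.4 (50 mM citrate below pH 6.0, 50 mM phosphate otherwise).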

[2] = Evaluation of conversion rate to active form in human plasma (Experimental Example 3); type: in vitro ADME; conditions: human, 0.2 μmol/L
Method: (§1) For Example 1, Example 2, Example 3, Example 4, Example 5, Example 6, Comparative Example 3, Comparative Example 4, Comparative Example 6, Comparative Example 7, Comparative Example 8, Comparative Example 9, Comparative Example 10 and Comparative Example 12, the attrition rate of the test compound and the conversion rate of the test compound to Alvocidib in human plasma and BALB/c mouse plasma were calculated by the following method.
(§2) The test compound was added to human plasma or BALB/c mouse plasma at a concentration of 0.2 μmol/L, and incubated at 37° C. The peak areas of the test compound and Alvocidib in the sample were determined by LC-MS/MS after 0, 30 and 60 minutes for Example 1, Example 2, Example 3, Example 4, Example 5 and Example 6, and after 0, 60 and 120 minutes for Comparative Example 3, Comparative Example 4, Comparative Example 6, Comparative Example 7, Comparative Example 8, Comparative Example 9, Comparative Example 10 and Comparative Example 12, and the attrition rate of the test compound and the conversion rate of the test compound to Alvocidib were calculated by the following formula. Attrition rate of test compound (%):(peak area of test compound in sample/peak area of test compound in sample after 0 minute)×100 Conversion rate to Alvocidib (%):(peak area of Alvocidib in sample/peak area of Alvocidib in reaction solution containing 0.2 μmol/L Alvocidib)×100
(§3) The measurement conditions for LC-MS/MS are as follows. • HPLC: Prominence system (Shimadzu Corporation) • MS/MS: • Example 1, Example 2, Example 3, Example 4, Example 5, Example 6, Comparative Example 8 (mouse), Comparative Example 10 (mouse) and Comparative Example 12 (mouse) • QTRAP5500 (SCIEX) • Comparative Example 6, Comparative Example 7, Comparative Example 8 (human), Comparative Example 9, Comparative Example 10 (human) and Comparative Example 12 (human) • 4000 QTRAP (SCIEX) • column: • other than Example 3 and Example 4 • Cadenza CD-C18, 3 μm, 50×2 mm (Imtakt Corporation) • Example 3 and Example 4 • Kinetex C8, 2.6 μm, 50×2.1 mm (Phenomenex) • column temperature: 40° C. • mobile phase: • A: water containing 0.1% formic acid • B: acetonitrile containing 0.1% formic acid • A/B (min): • Example 1, Example 2, Example 5, Example 6, Comparative Example 8 (mouse), Comparative Example 10 (mouse) and Comparative Example 12 (mouse) • 90/10(0)→40/60(5.0)→10/90(5.1)→10/90(6.5)→90/10(6.6)→90/10(8.0) • Example 3 and Example 4 • 86/14(0)→86/14(3.5)→10/90(5.5)→10/90(6.5)→86/14(6.6)→86/14(9.5) • Comparative Example 6, Comparative Example 7, Comparative Example 8 (human), Comparative Example 9, Comparative Example 10 (human) and Comparative Example 12 (human) • 90/10(0)→10/90(2.5)→10/90(3.5)→90/10(3.6)→90/10(5.0) • flow rate: 0.4 mL/min • detection: ESI (positive mode) • injection: 1 to 5 μL

[3] = Evaluation of conversion rate to active form in BALB/c mouse plasma (Experimental Example 3); type: in vitro ADME; conditions: BALB/c, mouse, 0.2 μmol/L
Method: as §1, §2, §3

- Production rate of Alvocidib ([1]; pH5.0, 0 hr): 16.1%
- Residual rate ([1]; pH5.0, 0 hr): 83.4%
- Stability in buffer solution at pH 5 ([1]; pH 5, 37° C., up to 2 or 3 hours): unstable
- Production rate of Alvocidib ([1]; pH5.0, 0.5 hr): 17.7%
- Residual rate ([1]; pH5.0, 0.5 hr): 81.9%
- Production rate of Alvocidib ([1]; pH5.0, 1 hr): 19.2%
- Residual rate ([1]; pH5.0, 1 hr): 80.4%
- Production rate of Alvocidib ([1]; pH5.0, 2 hr): 21.6%
- Residual rate ([1]; pH5.0, 2 hr): 78.1%
- Production rate of Alvocidib ([1]; pH5.0, 3 hr): 25.7%
- Residual rate ([1]; pH5.0, 3 hr): 73.9%
- Production rate of Alvocidib ([1]; pH5.5, 0 hr): 16.1%
- Residual rate ([1]; pH5.5, 0 hr): 83.4%
- Production rate of Alvocidib ([1]; pH5.5, 0.5 hr): 18.8%
- Residual rate ([1]; pH5.5, 0.5 hr): 80.7%
- Production rate of Alvocidib ([1]; pH5.5, 1 hr): 21.4%
- Residual rate ([1]; pH5.5, 1 hr): 78.3%
- Production rate of Alvocidib ([1]; pH5.5, 2 hr): 26.2%
- Residual rate ([1]; pH5.5, 2 hr): 73.5%
- Production rate of Alvocidib ([1]; pH5.5, 3 hr): 32.0%
- Residual rate ([1]; pH5.5, 3 hr): 67.6%
- Production rate of Alvocidib ([1]; pH6.0, 0 hr): 16.3%
- Residual rate ([1]; pH6.0, 0 hr): 83.5%
- Production rate of Alvocidib ([1]; pH6.0, 0.5 hr): 27.2%
- Residual rate ([1]; pH6.0, 0.5 hr): 72.6%
- Production rate of Alvocidib ([1]; pH6.0, 1 hr): 36.3%
- Residual rate ([1]; pH6.0, 1 hr): 63.5%
- Production rate of Alvocidib ([1]; pH6.0, 2 hr): 62.9%
- Residual rate ([1]; pH6.0, 2 hr): 36.7%
- Production rate of Alvocidib ([1]; pH6.0, 3 hr): 65.4%
- Residual rate ([1]; pH6.0, 3 hr): 34.5%
- Production rate of Alvocidib ([1]; pH6.5, 0 hr): 16.5%
- Residual rate ([1]; pH6.5, 0 hr): 83.3%
- Production rate of Alvocidib ([1]; pH6.5, 0.5 hr): 33.1%
- Residual rate ([1]; pH6.5, 0.5 hr): 66.7%
- Production rate of Alvocidib ([1]; pH6.5, 1 hr): 45.9%
- Residual rate ([1]; pH6.5, 1 hr): 53.9%
- Production rate of Alvocidib ([1]; pH6.5, 2 hr): 54.4%
- Residual rate ([1]; pH6.5, 2 hr): 45.2%
- Production rate of Alvocidib ([1]; pH6.5, 3 hr): 79.4%
- Residual rate ([1]; pH6.5, 3 hr): 20.4%
- Production rate of Alvocidib ([1]; pH7.0, 0 hr): 16.6%
- Residual rate ([1]; pH7.0, 0 hr): 83.1%
- Production rate of Alvocidib ([1]; pH7.0, 0.5 hr): 35.4%
- Residual rate ([1]; pH7.0, 0.5 hr): 64.4%
- Production rate of Alvocidib ([1]; pH7.0, 1 hr): 49.3%
- Residual rate ([1]; pH7.0, 1 hr): 50.5%
- Production rate of Alvocidib ([1]; pH7.0, 2 hr): 67.6%
- Residual rate ([1]; pH7.0, 2 hr): 32.1%
- Production rate of Alvocidib ([1]; pH7.0, 3 hr): 83.5%
- Residual rate ([1]; pH7.0, 3 hr): 16.4%
- Production rate of Alvocidib ([1]; pH7.4, 0 hr): 16.7%
- Residual rate ([1]; pH7.4, 0 hr): 83.1%
- Production rate of Alvocidib ([1]; pH7.4, 0.5 hr): 34.2%
- Residual rate ([1]; pH7.4, 0.5 hr): 65.6%
- Production rate of Alvocidib ([1]; pH7.4, 1 hr): 47.4%
- Residual rate ([1]; pH7.4, 1 hr): 52.4%
- Production rate of Alvocidib ([1]; pH7.4, 2 hr): 67.0%
- Residual rate ([1]; pH7.4, 2 hr): 32.7%
- Production rate of Alvocidib ([1]; pH7.4, 3 hr): 81.4%
- Residual rate ([1]; pH7.4, 3 hr): 18.5%
- Production rate (%) of Alvocidib ([2]; 0 min): 4%
- Residual rate (%) of test compound ([2]; 0 min): 100%
- Production rate (%) of Alvocidib ([2]; 60 min): 12%
- Residual rate (%) of test compound ([2]; 60 min): 87%
- Production rate (%) of Alvocidib ([2]; 120 min): 16%
- Residual rate (%) of test compound ([2]; 120 min): 94%
- Production rate (%) of Alvocidib ([3]; 0 min): 19%
- Residual rate (%) of test compound ([3]; 0 min): 100%
- Production rate (%) of Alvocidib ([3]; 60 min): 94%
- Residual rate (%) of test compound ([3]; 60 min): 14%
- Production rate (%) of Alvocidib ([3]; 120 min): 107%
- Residual rate (%) of test compound ([3]; 120 min): 4%
SMILES: CN1CC[C@H](c2c(O)cc(O)c3c(=O)cc(-c4ccccc4Cl)oc23)[C@H](OC(=O)CN)C1 [Comparative Example 8, reference compound]
